The text below walks through data of patent US10561638B2, “Methods for treating dependence” (Biotie Therapies, Inc., priority 2007, dated 2020).

“Also recorded” adds a separate entry of the source.

Data set [1] concerns tissue norepinephrine and dopamine levels. Kind of data set: Tissue catecholamines in SHRs after single dose (dose response, time course). Format: in vivo, spontaneously hypertensive rats. Conditions: for dose with significant change in dopamine/norepinephrine ratio: 6 h after single oral dose. On the procedure: Significant changes in these parameters were also observed in the left ventricle of male Sprague-Dawley rats 6 hours after the second of two i.v. injections (15 mg/kg) given 12 hours apart. The 24 hour time course of tissue catecholamines was studied in male SHRs following oral administration of either 10 or 30 mg/kg, respectively. The increase in the dopamine/norepinephrine ratio was significant at 1 hour, and was long lasting (12 hours at 10 mg/kg, mesenteric artery, and 24 hours at 30 mg/kg, left ventricle).
In SHRs there were significant changes in the dopamine/norepinephrine ratio in the mesenteric artery at doses of 0.3 mg/kg, in the left ventricle at 3.0 mg/kg, and in the cerebral cortex at 10 mg/kg. […] In a second dose-response study in SHRs, three doses were administered 12 hours apart at either 3.0, 10, 30, or 100 mg/kg, and tissue was harvested six hours after the third dose. Nepicastat caused a significant dose dependent decrease in norepinephrine (10 mg/kg) and increase in dopamine (3.0 mg/kg) and the dopamine/norepinephrine ratio (3.0 mg/kg) in the left ventricle and mesenteric artery. The effects of nepicastat on dopamine and norepinephrine concentrations, and the dopamine/norepinephrine ratio in the cerebral cortex were significant only at 30 and 100 mg/kg.
The purpose of this study was to determine the 24 hours time course of the effects of nepicastat (10 mg/kg) on dopamine and norepinephrine levels in the mesenteric artery following a single oral dose in spontaneously hypertensive rats. Catecholamine levels were measured at 1, 2, 4, 6, 8, 12, 16, and 24 hours after a single oral administration of either nepicastat (10 mg/kg) or vehicle (dH2O; 10 ml/kg).
Sixteen-17 week old, male spontaneous hypertensive rats (SHRs) weighing 300-400 grams were allowed food and water ad libitum. Animals were weighed and randomly assigned, the afternoon before the study, to one of the following treatment groups (n=9 per group): a single oral administration of nepicastat at 10 mg/kg or a single oral administration of vehicle (10 ml/kg) to be sacrificed at 1, 2, 4, 6, 8, 12, 16, or 24 hours.
Animals were dosed […] the morning of sacrifice. At 1, 2, 4, 6, 8, 12, 16 and 24 hours following administration, 9 treated animals and 9 vehicle animals were anesthetized with halothane, decapitated, and the left ventricle and mesenteric artery were rapidly harvested and weighed. The mesenteric artery was put in 0.5 ml of 0.4M perchloric acid in a centrifuge tube and the left ventricle put into an empty cryotube. Both tissues were immediately frozen in liquid nitrogen and stored at −70° C. Mesenteric artery catecholamine levels were determined using HPLC with electrochemical detection. At the time of decapitation, plasma samples were taken by draining blood from the carcass into a tube containing heparin, and centrifuging at 4° C.
Each treatment group was compared to vehicle at each time point. A two way analysis of variance (ANOVA) with effects TRT, HARVEST and their interaction was performed. A one way ANOVA with factor TRT was performed for each harvest time. Pairwise analyses between treated and vehicle animals, at each time point, were carried out using Fisher's LSD strategy to control the experiment-wise error rate. […] Levels were marginally (0.05<p<0.1) lower at the 6 hour time point.

The test system of a further data set is plasma renin activity. The experiment in a line: Plasma renin activity in SHRs. The class given is in vivo, spontaneously hypertensive rats. To be noted: 30 and 100 mg/kg/d p.o. for 5 days. The text has this:
The potency relationships in the left ventricle and mesenteric artery resulting from these in vivo studies strongly parallel those obtained from in vitro studies using purified DBH (see above). […] It was therefore of interest to assess whether decreasing norepinephrine levels with nepicastat would result in a decrease in plasma renin activity.

A short description of data set [2]: Pharmacokinetics and brain levels in rats. The class given is in vivo. Here is the method: Male rats (Crl: CD BR Vaf+) weighing 180-220 g were fasted overnight before dosing and until 4 hr after dosing. Doses were formulated in water containing 2% 1-hydroxypropyl methylcellulose (50 centipoises viscosity), 1% benzyl alcohol, and 0.6% Tween 80 (all obtained from Sigma Chemical Company). Concentration of drug in the dose solutions was 5, 15, and 50 mg/ml for the 10, 30, and 100 mg/kg doses, respectively, and was verified by liquid chromatography (LC). The 5 mg/ml dose was a clear solution and the higher concentrations were a translucent suspension. Dose volumes were 2.0 ml/kg. At various times after dosing, samples of blood were obtained by cardiac puncture with heparinized syringes, and plasma was prepared by centrifugation. Brains of rats were surgically excised, and all samples were frozen at −20° C. until analysis.
Aliquots of plasma (0.05 or 0.5 ml) were mixed with internal standard (50 μl of methanol containing 5 μg/ml a monofluoro analog of nepicastat, and 5 mg/ml dithiothreitol). […] Concentrations of analytes were determined from a standard curve generated from the analysis of plasma from untreated rats fortified with known concentrations of analyte. Plasma concentration data are expressed as μg (free base) per ml. […]
Following addition of 100 μl of methanol to the aqueous phase (to disperse any emulsion), 100 μl aliquots were assayed by LC as described for plasma. Level in brain are expressed as μg (free base) per g of brain tissue.
Pharmacokinetic parameters were calculated from mean plasma concentrations. Plasma half-life (T1/2) was calculated as 0.693/β, where β is the elimination rate constant determined by linear regression of the log plasma concentration vs. time data within the terminal linear portion of the data. Areas under the plasma concentration vs. time curve (AUC) from zero to the time of the last quantifiable plasma concentrations were calculated by the trapezoidal rule. AUC from zero to infinity (AUCtotal 1 was calculated as: AUCtotal=AUC(0−Clast)+Clast/β where Clast is the last quantifiable plasma concentration.

On to `Cl.NCc1c[nH]c(=S)n1[C@H]1CCc2c(F)cc(F)cc2C1` [nepicastat, (S)-5-Aminomethyl-1-(5,7-difluoro-1,2,3,4-tetrahydronaphth-2-yl)-2,3-dihydro-2-thioxo-1H-imidazole hydrochloride], for which the “duration of increase in dopamine/norepinephrine ratio” value amounted to 12 h in data set [1] (10 mg/kg, mesenteric artery) and 24 h in data set [1] (30 mg/kg, left ventricle). In data set [1] (10 or 30 mg/kg oral), the “time at which increase in dopamine/norepinephrine ratio was significant” value was 1 h. Also, the “doses inhibiting DBH” value in data set [1] (cerebral cortex of rats) was in the range of 60 to 100 mg/kg/day; in data set [1] (left ventricle and mesenteric artery of rats), 1 to 6 mg/kg/day. In addition, the “dose with significant change in dopamine/norepinephrine ratio” value in data set [1] (cerebral cortex) is 10 mg/kg; in data set [1] (left ventricle), 3.0 mg/kg; in data set [1] (mesenteric artery) it was 0.3 mg/kg. Moreover, the “oral dose with significant evidence for DBH inhibition” value in data set [1] (heart and mesenteric artery, rats) turned out to be 6 mg/kg/day. For the same compound, in data set [1] (mesenteric artery, 10 mg/kg po, 1, 2, 4, 6 and 12 hour), the “dopamine/norepinephrine ratio vs vehicle” value is listed as “significantly (p<0.05) greater”. The “dopamine levels vs vehicle” value in data set [1] (mesenteric artery, 10 mg/kg po, 2 and 6 hr) is listed as “significantly (p<0.05) higher”. Further, in data set [1] (mesenteric artery, 10 mg/kg po, 16 and 24 h harvest), the “norepinephrine, dopamine and ratio” value is listed as “no changes in any of the three parameters”. Also, the norepinephrine vs vehicle result in data set [1] (mesenteric artery, single 10 mg/kg po, 1-24 h) is given as “significantly (p<0.05) lower than vehicle only at the 4 hr time point”. Besides, the plasma renin activity entry in the data set with plasma renin activity is on record as “did not alter plasma renin activity”. The “plasma AUCtotal, higher in female than in male rats” value in data set [2] (30 mg/kg oral) stood at 77%. Moreover, the “brain vs plasma concentrations” value in data set [2] (male rats, 10 mg/kg oral, from 2 hr onward, hydrochloride, 10 mg/kg) is “concentrations of nepicastat in brain exceeded those in plasma; also recorded: levels of nepicastat in brain were greater than in plasma”. The “relationship between AUCtotal and dose” value in data set [2] (male rats, 10-100 mg/kg) is reported as “linear”.
